Assay results: ChEMBL document CHEMBL1201862, “PubChem BioAssay data set” (2004)
Several values for one entry are separate records, joined by “and”; a condition that tells them apart may be missing. Equal entries are not always repeated. Structures can show the parent of a compound that is named as a salt. Activity calls are given as the source filed them.

Key:
HEK293 = assay: EBV LMP1 TES2 canonical NF-kB signalling blockers – cell-based, HEK293, luciferase, cherry-pick, dose response (AID 588343); assay type: functional; settings: Homo sapiens
Cytochrome P450 3A4 = Cytochrome P450 3A4 (Homo sapiens, UniProt P08684);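 note: CYP3A4 tested as one member of a cytochrome P450 panel screen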
Cytochrome P450 2C9 [1] = target: T1, Cytochrome P450 2C9 (Homo sapiens, UniProt P11712)
[2] = target: Voltage-gated inwardly rectifying potassium channel KCNH2 (Homo sapiens, UniProt Q12809); settings: Potency;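 note: confirmatory quantitative high-throughput screen measuring inhibition of hERG channel activity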
Cytochrome P450 2C9 [3] = target: T1, Cytochrome P450 2C9; remark: listed apart in the source
[4] = intracellular Trypanosoma cruzi inhibitors in host cells – cell-based, plate reader, cherry-pick samples, set 3, dose response (AID 651818); assay type: functional;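 note: compounds incubated with infected cells for about four days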
[5] = blockers of HIV-1 envelope-mediated cell-cell fusion – cherry-pick, dose response (AID 652057); assay type: functional, cell-based
[6] = blockers of HIV-1 ZM109 envelope-driven cell-cell fusion – HeLa effector, CEM target cells, luciferase, cherry-pick, dose response (AID 652058); assay type: functional, cell-based;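 note: luciferase signal from HIV-1 Env mediated cell-cell fusion of effector and target cells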
[7] = HIV-1 AD8 envelope cell-cell fusion blockers – cherry-pick, dose response (AID 652062); assay type: functional, cell-based;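 note: luciferase signal from cell-cell fusion driven by HIV-1 clade B AD8 Env; potency is for inhibitors of fusion seen as a drop in luminescence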
Fatty acid synthase [8] = target: T2, Fatty acid synthase (Homo sapiens, UniProt P49327); assay: inhibition of human FAS-TE enzyme activity – biochemical, endpoint fluorescence intensity, uHTS hits, dose response (AID 624327); assay type: functional;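 note: fluorescence from hydrolysis of an O-methyl fluorescein acyl ester substrate by the enzyme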
Fatty acid synthase [9] = target: T2, Fatty acid synthase; assay: inhibition of human FAS-TE enzyme activity – biochemical, kinetic fluorescence intensity, dose response (AID 624326); assay type: functional;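 note: rate of fluorescence rise from hydrolysis of a fluorogenic O-methyl fluorescein ester substrate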
Albumin = Albumin (Bos taurus, UniProt P02769); assay: Counterscreen for inhibitors of T-cell receptor (TCR)-CD3 interaction: Fluorescence-based biochemical high throughput dose response assay to identify inhibitors of T-cell receptor (TCR)-CD3 interaction using a TAMRA-labeled BSA probe.; assay type: functional
[10] = target: Glucose-6-phosphate 1-dehydrogenase (Homo sapiens, UniProt P11413); assay: inhibition of Homo sapiens G6PD, dose series – biochemical, fluorescence, selectivity assay for P. falciparum G6PD inhibitor project, dose response (AID 504792); assay type: functional
[11] = target: T3, Heat shock factor protein 1 (Mus musculus, UniProt P38532); assay: enhancement of HSF1-driven luciferase signal – cell-based, NIH3T3, luminescence, dose retest, confirmation (AID 435004); assay type: functional;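 note: stress induced by proteasome inhibitor MG132 added 30 min after compound; luciferase reporter driven by HSF1 response element in NIH3T3 cells; actives raise luminescence as potentiators of the MG132 stress response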
T3 sequence (P38532 whole entry): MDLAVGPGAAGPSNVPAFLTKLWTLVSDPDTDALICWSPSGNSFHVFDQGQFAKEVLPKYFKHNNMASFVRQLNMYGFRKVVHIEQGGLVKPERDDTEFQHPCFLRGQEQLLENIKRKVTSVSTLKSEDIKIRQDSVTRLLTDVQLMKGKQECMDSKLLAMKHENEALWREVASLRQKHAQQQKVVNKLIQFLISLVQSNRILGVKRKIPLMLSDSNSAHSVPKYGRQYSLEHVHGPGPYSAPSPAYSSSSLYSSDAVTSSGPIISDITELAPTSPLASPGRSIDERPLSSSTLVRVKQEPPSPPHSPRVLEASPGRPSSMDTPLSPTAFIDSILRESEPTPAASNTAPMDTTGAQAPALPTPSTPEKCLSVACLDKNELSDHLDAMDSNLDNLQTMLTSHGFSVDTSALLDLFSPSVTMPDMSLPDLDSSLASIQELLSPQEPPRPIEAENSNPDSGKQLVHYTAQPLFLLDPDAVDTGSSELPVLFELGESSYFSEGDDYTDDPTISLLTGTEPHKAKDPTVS

[12] = viability loss in THP-1 monocytes – THP-1 cells, cytotoxicity control for Vif-APOBEC3G degradation inhibitor project, dose response (AID 1117359); assay type: functional; settings: THP-1
[13] = target: T4, Ubiquitin-conjugating enzyme E2 N (Homo sapiens, UniProt P61088); assay type: functional;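 note: Dose-response confirmation in a TR-FRET assay detecting UBC13-driven polyubiquitin chain formation, inhibition measured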
T4 sequence (P61088 whole entry): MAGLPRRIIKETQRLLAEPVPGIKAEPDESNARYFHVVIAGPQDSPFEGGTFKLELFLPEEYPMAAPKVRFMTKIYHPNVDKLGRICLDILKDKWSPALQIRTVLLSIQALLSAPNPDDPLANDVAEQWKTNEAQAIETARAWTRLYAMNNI

[14] = HEK-293T cell viability reduction – luminescence, B-cell screen hits, cytotoxicity control for BCR NF-kB inhibitor project, dose response (AID 489021); assay type: functional, cell-based;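 note: HEK-293T cells carrying an NF-kB luciferase reporter; cells exposed to compound for about 14 hours before viability readout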

Chain of Voltage-gated inwardly rectifying potassium channel KCNH2 (Q12809 whole entry): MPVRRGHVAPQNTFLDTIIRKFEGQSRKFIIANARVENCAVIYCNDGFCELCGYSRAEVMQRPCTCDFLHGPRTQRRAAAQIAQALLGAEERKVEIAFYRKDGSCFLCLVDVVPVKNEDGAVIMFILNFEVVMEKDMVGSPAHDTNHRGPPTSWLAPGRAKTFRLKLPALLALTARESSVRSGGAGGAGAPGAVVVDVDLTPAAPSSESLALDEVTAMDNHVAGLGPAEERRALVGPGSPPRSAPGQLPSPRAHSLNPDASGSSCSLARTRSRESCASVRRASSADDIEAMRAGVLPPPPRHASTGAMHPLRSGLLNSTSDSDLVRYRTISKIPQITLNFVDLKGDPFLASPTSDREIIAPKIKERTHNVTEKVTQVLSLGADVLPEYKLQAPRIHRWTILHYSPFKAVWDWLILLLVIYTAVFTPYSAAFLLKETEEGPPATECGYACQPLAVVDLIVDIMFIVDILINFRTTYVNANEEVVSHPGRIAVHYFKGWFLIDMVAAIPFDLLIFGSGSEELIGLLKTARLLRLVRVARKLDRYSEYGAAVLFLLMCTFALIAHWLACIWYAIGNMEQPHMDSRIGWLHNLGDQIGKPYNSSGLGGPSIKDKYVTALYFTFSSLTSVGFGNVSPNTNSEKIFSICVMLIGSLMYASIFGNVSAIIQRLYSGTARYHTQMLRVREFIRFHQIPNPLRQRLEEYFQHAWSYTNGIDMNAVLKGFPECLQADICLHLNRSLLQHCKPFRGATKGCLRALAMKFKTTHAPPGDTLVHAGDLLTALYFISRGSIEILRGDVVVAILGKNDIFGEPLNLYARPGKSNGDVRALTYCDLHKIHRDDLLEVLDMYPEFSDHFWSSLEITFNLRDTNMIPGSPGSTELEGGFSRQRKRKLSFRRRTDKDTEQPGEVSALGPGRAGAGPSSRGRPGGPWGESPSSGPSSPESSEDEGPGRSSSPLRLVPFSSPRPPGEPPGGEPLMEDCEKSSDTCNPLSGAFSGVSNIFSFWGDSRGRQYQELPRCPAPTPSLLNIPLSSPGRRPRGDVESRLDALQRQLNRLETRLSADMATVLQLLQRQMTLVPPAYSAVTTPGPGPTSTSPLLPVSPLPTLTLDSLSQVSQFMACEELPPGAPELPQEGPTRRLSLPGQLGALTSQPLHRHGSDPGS
T1 sequence (P11712 whole entry): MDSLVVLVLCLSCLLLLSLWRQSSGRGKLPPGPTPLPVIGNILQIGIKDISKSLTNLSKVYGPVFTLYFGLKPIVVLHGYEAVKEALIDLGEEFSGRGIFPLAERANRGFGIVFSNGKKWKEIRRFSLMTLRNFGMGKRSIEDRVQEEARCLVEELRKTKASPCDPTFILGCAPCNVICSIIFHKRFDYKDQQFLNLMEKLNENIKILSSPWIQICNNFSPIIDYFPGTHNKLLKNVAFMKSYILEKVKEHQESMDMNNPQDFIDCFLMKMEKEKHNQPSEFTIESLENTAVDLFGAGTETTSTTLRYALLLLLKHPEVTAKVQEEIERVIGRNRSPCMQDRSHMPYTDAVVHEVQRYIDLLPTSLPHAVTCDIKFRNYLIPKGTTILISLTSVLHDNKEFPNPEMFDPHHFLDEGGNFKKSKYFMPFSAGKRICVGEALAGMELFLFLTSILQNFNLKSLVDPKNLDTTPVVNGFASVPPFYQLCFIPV
Chain of Cytochrome P450 3A4 (P08684 whole entry): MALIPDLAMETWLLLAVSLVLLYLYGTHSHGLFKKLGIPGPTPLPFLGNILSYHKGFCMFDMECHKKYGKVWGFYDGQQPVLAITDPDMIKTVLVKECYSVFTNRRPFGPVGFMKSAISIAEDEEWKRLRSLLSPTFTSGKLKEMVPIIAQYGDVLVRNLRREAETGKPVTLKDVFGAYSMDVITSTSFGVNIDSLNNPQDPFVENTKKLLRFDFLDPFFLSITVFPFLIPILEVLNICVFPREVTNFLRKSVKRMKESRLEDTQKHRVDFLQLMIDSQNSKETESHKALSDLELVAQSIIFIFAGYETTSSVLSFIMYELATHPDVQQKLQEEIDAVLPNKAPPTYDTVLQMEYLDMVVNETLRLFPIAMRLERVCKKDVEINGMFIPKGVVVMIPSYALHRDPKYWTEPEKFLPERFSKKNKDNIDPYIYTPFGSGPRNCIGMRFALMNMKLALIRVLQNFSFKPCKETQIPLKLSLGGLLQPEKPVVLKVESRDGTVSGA
T2 sequence (P49327 whole entry): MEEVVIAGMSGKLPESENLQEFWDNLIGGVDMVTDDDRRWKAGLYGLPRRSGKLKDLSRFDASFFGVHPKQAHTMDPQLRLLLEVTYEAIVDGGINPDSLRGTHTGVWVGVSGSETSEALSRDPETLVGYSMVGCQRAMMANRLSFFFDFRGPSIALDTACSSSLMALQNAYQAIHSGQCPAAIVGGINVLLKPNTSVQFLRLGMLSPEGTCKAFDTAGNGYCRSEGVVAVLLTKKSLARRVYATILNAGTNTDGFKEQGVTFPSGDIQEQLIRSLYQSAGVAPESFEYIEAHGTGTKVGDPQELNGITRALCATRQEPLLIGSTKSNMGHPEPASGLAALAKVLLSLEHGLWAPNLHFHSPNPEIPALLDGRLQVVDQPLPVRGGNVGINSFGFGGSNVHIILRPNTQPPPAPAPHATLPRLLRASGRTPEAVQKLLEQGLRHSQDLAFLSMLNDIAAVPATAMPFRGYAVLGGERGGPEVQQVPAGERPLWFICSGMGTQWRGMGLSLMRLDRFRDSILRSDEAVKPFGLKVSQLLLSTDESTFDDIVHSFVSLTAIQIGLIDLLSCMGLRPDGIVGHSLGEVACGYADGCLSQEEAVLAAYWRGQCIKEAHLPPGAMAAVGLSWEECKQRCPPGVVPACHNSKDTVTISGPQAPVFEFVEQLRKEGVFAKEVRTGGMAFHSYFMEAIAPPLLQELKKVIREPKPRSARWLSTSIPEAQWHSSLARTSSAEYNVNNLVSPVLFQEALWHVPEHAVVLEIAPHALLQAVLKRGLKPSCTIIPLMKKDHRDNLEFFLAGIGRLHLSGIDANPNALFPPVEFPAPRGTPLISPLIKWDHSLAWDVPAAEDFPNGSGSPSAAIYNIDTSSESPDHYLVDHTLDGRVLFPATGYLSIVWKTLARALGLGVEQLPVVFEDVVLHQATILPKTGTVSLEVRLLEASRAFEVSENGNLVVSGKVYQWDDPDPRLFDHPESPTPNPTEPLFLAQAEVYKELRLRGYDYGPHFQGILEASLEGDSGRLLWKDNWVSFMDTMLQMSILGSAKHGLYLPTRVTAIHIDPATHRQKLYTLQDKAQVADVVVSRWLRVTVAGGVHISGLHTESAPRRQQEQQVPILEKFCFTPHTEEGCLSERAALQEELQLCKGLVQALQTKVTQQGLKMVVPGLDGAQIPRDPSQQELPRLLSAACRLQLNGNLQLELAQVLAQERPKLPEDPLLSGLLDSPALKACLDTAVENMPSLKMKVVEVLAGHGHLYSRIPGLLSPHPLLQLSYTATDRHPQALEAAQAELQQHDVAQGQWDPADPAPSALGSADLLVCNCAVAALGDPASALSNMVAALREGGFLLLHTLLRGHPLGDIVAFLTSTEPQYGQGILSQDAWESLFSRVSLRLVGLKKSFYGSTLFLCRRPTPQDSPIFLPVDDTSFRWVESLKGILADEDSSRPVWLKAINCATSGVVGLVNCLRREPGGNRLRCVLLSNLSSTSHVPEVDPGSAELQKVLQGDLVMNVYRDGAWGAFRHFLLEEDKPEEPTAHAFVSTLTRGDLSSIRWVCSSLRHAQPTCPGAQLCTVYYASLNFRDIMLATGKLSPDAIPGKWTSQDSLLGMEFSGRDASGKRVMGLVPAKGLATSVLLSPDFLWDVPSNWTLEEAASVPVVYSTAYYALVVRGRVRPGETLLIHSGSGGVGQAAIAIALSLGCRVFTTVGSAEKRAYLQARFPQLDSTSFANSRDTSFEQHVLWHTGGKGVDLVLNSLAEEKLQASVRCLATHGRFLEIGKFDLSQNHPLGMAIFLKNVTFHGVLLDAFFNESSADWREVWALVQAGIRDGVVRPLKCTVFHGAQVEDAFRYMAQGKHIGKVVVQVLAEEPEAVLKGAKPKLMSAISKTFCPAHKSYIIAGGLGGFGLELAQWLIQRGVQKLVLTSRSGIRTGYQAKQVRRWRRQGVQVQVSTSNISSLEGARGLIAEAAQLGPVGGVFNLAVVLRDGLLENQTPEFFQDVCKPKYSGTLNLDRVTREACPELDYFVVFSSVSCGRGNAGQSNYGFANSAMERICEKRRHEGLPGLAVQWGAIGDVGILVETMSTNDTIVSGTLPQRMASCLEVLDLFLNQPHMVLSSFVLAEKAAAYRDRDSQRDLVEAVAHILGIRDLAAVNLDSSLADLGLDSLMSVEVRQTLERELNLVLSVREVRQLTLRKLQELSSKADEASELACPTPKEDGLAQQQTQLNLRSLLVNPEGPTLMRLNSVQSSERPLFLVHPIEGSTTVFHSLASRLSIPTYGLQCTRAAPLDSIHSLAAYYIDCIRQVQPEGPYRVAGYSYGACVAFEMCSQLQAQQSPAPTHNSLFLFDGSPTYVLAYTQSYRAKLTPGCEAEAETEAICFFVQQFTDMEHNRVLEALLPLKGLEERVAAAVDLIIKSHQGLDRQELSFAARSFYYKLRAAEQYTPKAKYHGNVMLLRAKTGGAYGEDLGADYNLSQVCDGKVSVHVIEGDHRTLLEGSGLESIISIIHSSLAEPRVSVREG

Which AC50 (HEK293) does the source give for `Oc1ccc(C=NNC(=S)Nc2ccccc2)nc1` here?
The AC50 was 14.6 µM (active).

For `COc1[nH]c2ccc(F)cc2c1C(=O)OCC1CCN(CCNS(C)(=O)=O)CC1.NS(=O)(=O)O`, which AC50 (Cytochrome P450 3A4) is on record?
The AC50 was 12.6 µM (inconclusive) and 31.6 µM (inconclusive).

What about the AC50 (Cytochrome P450 2C9 [1]) of the same molecule?
Its AC50 is 39.8 µM (inconclusive).

What about the AC50 [2] of the same molecule?
Its AC50 is 35.5 µM (inconclusive).

And the AC50 (Cytochrome P450 2C9 [3])?
Its AC50 is “inconclusive”.

With `C[C@@H]1CCCCO[C@H](CN(C)C(=O)Nc2ccc(C(F)(F)F)cc2)[C@@H](C)CN([C@H](C)CO)C(=O)c2cc(NC(=O)Nc3ccccc3)ccc2O1` as the molecule, how does the AC50 [4] read?
The AC50 was 2.02 µM (active).

For `C[C@@H]1CN([C@H](C)CO)C(=O)Cc2cc(NC(=O)Nc3ccc(C(F)(F)F)cc3)ccc2O[C@@H]1CN(C)Cc1ccc(C(=O)Nc2ccccc2N)cc1`, which AC50 [4] is on record?
The AC50 was 2.41 µM (active).

For `C[C@H]1CN([C@@H](C)CO)C(=O)Cc2cc(NC(=O)Nc3cccc4ccccc34)ccc2O[C@H]1CN(C)Cc1ccc(C(F)(F)F)cc1`, which AC50 [4] is on record?
Its AC50 is 5.49 µM (active).

With `C[C@@H]1CN([C@H](C)CO)C(=O)Cc2cc(NC(=O)C3CCCCC3)ccc2O[C@@H]1CN(C)Cc1ccc(C(=O)Nc2ccccc2N)cc1` as the molecule, how does the AC50 [4] read?
The AC50 was 3.51 µM (active).

With `COc1ccc(NC(=O)Nc2ccc3c(c2)CC(=O)N([C@@H](C)CO)C[C@H](C)[C@@H](CN(C)Cc2ccc(C(=O)Nc4ccccc4N)cc2)O3)cc1` as the molecule, how does the AC50 [4] read?
The AC50 was 3.65 µM (active).

With `CO[C@H](CN(C)S(=O)(=O)c1ccc(Cl)cc1)[C@H](C)CN([C@@H](C)CO)S(=O)(=O)c1cccc(Cl)c1` as the molecule, how does the AC50 [5] read?
The AC50 was 3.31 µM (active).

And the AC50 [6]?
The AC50 was 3.66 µM (active).

And the AC50 [7]?
Its AC50 is 17.6 µM (active).

With `O=C(C[C@H]1C[C@H]2c3cc(NC(=O)NC4CCCC4)ccc3O[C@H]2[C@@H](CO)O1)NC1CCCCC1` as the molecule, how does the AC50 [6] read?
The AC50 was 24.5 µM (active).

And the AC50 [7]?
Its AC50 is 1.17 µM (active).

Which IC50 (Fatty acid synthase [8]) does the source give for `O=C(NC(C(=O)N/N=C/c1cc([N+](=O)[O-])ccc1O)c1nnc(O)c2ccccc12)c1ccccc1` (configuration not stated) here?
The IC50 was 2.76 µM (active).

What about the IC50 (Fatty acid synthase [9]) of the same molecule?
Its IC50 is 2.55 µM (active).

What about the IC50 (Albumin) of the same molecule?
Its IC50 is > 94.1 µM (inactive).

For `C=CCN1CCc2cccc3c2[C@H]1Cc1ccc(O)c(O)c1-3`, which IC50 [10] is on record?
The IC50 was > 80 µM (inactive).

And the EC50 [11]?
Its EC50 is > 260 µM (inactive).

And the CC50 [12]?
The CC50 was > 40 µM (active).

And the AC50 [2]?
The AC50 was 11.2 µM (inconclusive).

Which IC50 [13] does the source give for `COc1cc(-c2nc3ccc(N4CCN(C)CC4)cc3[nH]2)cc(OC)c1OC` here?
Its IC50 is > 20 µM (inactive).

What about the IC50 [14] of the same molecule?
Its IC50 is > 80 µM (inactive).

With `NCCc1ccc(S(=O)(=O)F)cc1` [4-AMINOETHYLBENZENESULFONYL FLUORIDE HYDROCHLORIDE] as the molecule, how does the AC50 [2] read?
The AC50 was 0.251 µM (inconclusive).

Which AC50 [2] does the source give for `O=NN(CCO)CCO` [N-NITROSODOETHANOLAMINE] here?
The AC50 was 3.16 µM (inconclusive).

With `O=C(Oc1ccccc1)c1ccccc1O` [PHENYL SALICYLATE] as the molecule, how does the AC50 [2] read?
Its AC50 is 50.1 µM (inconclusive).
